Source: ChEMBL document CHEMBL3885881, “DrugMatrix”

Species: Rattus norvegicus
Assay: DrugMatrix - Regimen: Daily Repeat
Format: toxicity, organism-based, Sprague-Dawley
Set-up: regimen Daily Repeat, gender Male, age 6-8 weeks
Details: in vivo, sc, route subcutaneous, […]; for ABSOLUTE BASOPHIL / ABSOLUTE EOSINOPHIL / ABSOLUTE LYMPHOCYTE / ABSOLUTE MONOCYTE / ABSOLUTE SEGMENTED NEUTROPHIL / BASOPHIL / EOSINOPHIL / ERYTHROCYTE COUNT / HEMATOCRIT / HEMOGLOBIN / LEUKOCYTE COUNT / LYMPHOCYTE / MEAN CORPUSCULAR HEMOGLOBIN / MEAN CORPUSCULAR HEMOGLOBIN CONCENTRATION / MEAN CORPUSCULAR VOLUME / MONOCYTE / NEUTROPHIL / NUCLEATED RED BLOOD CELLS / PLATELET COUNT: tissue Blood; for ALANINE AMINOTRANSFERASE / ALBUMIN / ALKALINE PHOSPHATASE / ASPARTATE AMINOTRANSFERASE / BLOOD UREA NITROGEN / CARBON DIOXIDE / CHLORIDE / CHOLESTEROL / CREATINE PHOSPHOKINASE / CREATININE / GLUCOSE / LACTATE DEHYDROGENASE / LIPASE / PHOSPHORUS / POTASSIUM / SODIUM / TOTAL BILIRUBIN / TOTAL PROTEIN / URIC ACID: tissue Plasma
[1] = 0 mg/kg, 72 h, dose level Control, time 3 day
[2] = 0 mg/kg, 120 h, dose level Control, time 5 day
[3] = 150 mg/kg, 72 h, dose level High, time 3 day

Which “ABSOLUTE BASOPHIL” value [1] does the source give for CN(Cc1ccc(C(C)(C)C)cc1)Cc1cccc2ccccc12 [BUTENAFINE] here?
The value was 0 CELLS/uL.

And the “ABSOLUTE EOSINOPHIL” value [1]?
Its value is 0 CELLS/uL.

And the “ABSOLUTE LYMPHOCYTE” value [1]?
The value was 10887 CELLS/uL.

And the “ABSOLUTE MONOCYTE” value [1]?
The value was 56 CELLS/uL.

And the “ABSOLUTE SEGMENTED NEUTROPHIL” value [1]?
The value was 1057 CELLS/uL.

And the BASOPHIL [1]?
Its BASOPHIL is 0%.

What about the EOSINOPHIL [1] of the same compound?
Its EOSINOPHIL is 0%.

What about the “ERYTHROCYTE COUNT” value [1] of the same compound?
The value was 5.31 x10E6/uL.

What about the HEMATOCRIT [1] of the same compound?
The HEMATOCRIT was 33.78%.

And the HEMOGLOBIN [1]?
The HEMOGLOBIN was 13.4 G/DL.

What about the “LEUKOCYTE COUNT” value [1] of the same compound?
Its value is 12 x10E3/uL.

And the LYMPHOCYTE [1]?
The LYMPHOCYTE was 91.17%.

And the “MEAN CORPUSCULAR HEMOGLOBIN” value [1]?
Its value is 25.25 pg.

And the “MEAN CORPUSCULAR HEMOGLOBIN CONCENTRATION” value [1]?
The value was 39.65 G/DL.

And the “MEAN CORPUSCULAR VOLUME” value [1]?
Its value is 63.65 fL.

What about the MONOCYTE [1] of the same compound?
The MONOCYTE was 0.5%.

And the NEUTROPHIL [1]?
Its NEUTROPHIL is 8.33%.

What about the “NUCLEATED RED BLOOD CELLS” value [1] of the same compound?
The value was 0 /100WBC.

What about the “PLATELET COUNT” value [1] of the same compound?
The value was 1142 x10E3/uL.

And the “ALANINE AMINOTRANSFERASE” value [1]?
Its value is 57.17 u/L.

And the ALBUMIN [1]?
The ALBUMIN was 4.28 G/DL.

And the “ALKALINE PHOSPHATASE” value [1]?
The value was 425.83 u/L.

What about the “ASPARTATE AMINOTRANSFERASE” value [1] of the same compound?
The value was 93.83 u/L.

What about the “BLOOD UREA NITROGEN” value [1] of the same compound?
The value was 14.17 mg/dL.

And the “CARBON DIOXIDE” value [1]?
The value was 33.5 mmol/L.

And the CHLORIDE [1]?
Its CHLORIDE is 100 MEQ/L.

And the CHOLESTEROL [1]?
Its CHOLESTEROL is 70.33 mg/dL.

And the “CREATINE PHOSPHOKINASE” value [1]?
Its value is 438.67 u/L.

What about the CREATININE [1] of the same compound?
The CREATININE was 0.19 mg/dL.

What about the GLUCOSE [1] of the same compound?
The GLUCOSE was 138.5 mg/dL.

And the “LACTATE DEHYDROGENASE” value [1]?
The value was 190.17 u/L.

And the LIPASE [1]?
The LIPASE was 9.83 u/L.

And the PHOSPHORUS [1]?
The PHOSPHORUS was 11.05 mg/dL.

And the POTASSIUM [1]?
Its POTASSIUM is 6.59 MEQ/L.

What about the SODIUM [1] of the same compound?
The SODIUM was 143.58 MEQ/L.

What about the “TOTAL BILIRUBIN” value [1] of the same compound?
Its value is 0.22 mg/dL.

What about the “TOTAL PROTEIN” value [1] of the same compound?
Its value is 6.15 G/DL.

And the “URIC ACID” value [1]?
Its value is 1.3 mg/dL.

What about the “ABSOLUTE BASOPHIL” value [2] of the same compound?
The value was 0 CELLS/uL.

And the “ABSOLUTE EOSINOPHIL” value [2]?
Its value is 91.17 CELLS/uL.

And the “ABSOLUTE LYMPHOCYTE” value [2]?
Its value is 11847.67 CELLS/uL.

And the “ABSOLUTE MONOCYTE” value [2]?
The value was 172.83 CELLS/uL.

What about the “ABSOLUTE SEGMENTED NEUTROPHIL” value [2] of the same compound?
Its value is 1105 CELLS/uL.

What about the BASOPHIL [2] of the same compound?
Its BASOPHIL is 0%.

What about the EOSINOPHIL [2] of the same compound?
The EOSINOPHIL was 0.67%.

And the “ERYTHROCYTE COUNT” value [2]?
Its value is 5.35 x10E6/uL.

And the HEMATOCRIT [2]?
The HEMATOCRIT was 33.65%.

What about the HEMOGLOBIN [2] of the same compound?
The HEMOGLOBIN was 13.42 G/DL.

What about the “LEUKOCYTE COUNT” value [2] of the same compound?
Its value is 13.22 x10E3/uL.

And the LYMPHOCYTE [2]?
The LYMPHOCYTE was 89.83%.

And the “MEAN CORPUSCULAR HEMOGLOBIN” value [2]?
Its value is 25.12 pg.

What about the “MEAN CORPUSCULAR HEMOGLOBIN CONCENTRATION” value [2] of the same compound?
Its value is 39.9 G/DL.

And the “MEAN CORPUSCULAR VOLUME” value [2]?
The value was 63 fL.

What about the MONOCYTE [2] of the same compound?
Its MONOCYTE is 1.33%.

And the NEUTROPHIL [2]?
Its NEUTROPHIL is 8.17%.

What about the “NUCLEATED RED BLOOD CELLS” value [2] of the same compound?
Its value is 0 /100WBC.

And the “PLATELET COUNT” value [2]?
The value was 1347.83 x10E3/uL.

What about the “ALANINE AMINOTRANSFERASE” value [2] of the same compound?
The value was 50 u/L.

And the ALBUMIN [2]?
Its ALBUMIN is 4.1 G/DL.

What about the “ALKALINE PHOSPHATASE” value [2] of the same compound?
Its value is 329.17 u/L.

What about the “ASPARTATE AMINOTRANSFERASE” value [2] of the same compound?
The value was 77.17 u/L.

What about the “BLOOD UREA NITROGEN” value [2] of the same compound?
The value was 16.83 mg/dL.

And the “CARBON DIOXIDE” value [2]?
Its value is 34.83 mmol/L.

And the CHLORIDE [2]?
Its CHLORIDE is 99.83 MEQ/L.

What about the CHOLESTEROL [2] of the same compound?
The CHOLESTEROL was 75.67 mg/dL.

And the “CREATINE PHOSPHOKINASE” value [2]?
The value was 295.83 u/L.

What about the CREATININE [2] of the same compound?
The CREATININE was 0.18 mg/dL.

What about the GLUCOSE [2] of the same compound?
Its GLUCOSE is 156.33 mg/dL.

What about the “LACTATE DEHYDROGENASE” value [2] of the same compound?
Its value is 166.83 u/L.

And the LIPASE [2]?
Its LIPASE is 9.83 u/L.

And the PHOSPHORUS [2]?
Its PHOSPHORUS is 12.18 mg/dL.

And the POTASSIUM [2]?
The POTASSIUM was 6.69 MEQ/L.

What about the SODIUM [2] of the same compound?
The SODIUM was 143.97 MEQ/L.

What about the “TOTAL BILIRUBIN” value [2] of the same compound?
The value was 0.22 mg/dL.

And the “TOTAL PROTEIN” value [2]?
The value was 6.05 G/DL.

What about the “URIC ACID” value [2] of the same compound?
Its value is 1.6 mg/dL.

What about the “ABSOLUTE BASOPHIL” value [3] of the same compound?
The value was 0 CELLS/uL.

What about the “ABSOLUTE EOSINOPHIL” value [3] of the same compound?
The value was 0 CELLS/uL.

What about the “ABSOLUTE LYMPHOCYTE” value [3] of the same compound?
Its value is 11405 CELLS/uL.

And the “ABSOLUTE MONOCYTE” value [3]?
Its value is 88.33 CELLS/uL.

And the “ABSOLUTE SEGMENTED NEUTROPHIL” value [3]?
The value was 1473.33 CELLS/uL.

And the BASOPHIL [3]?
Its BASOPHIL is 0%.

What about the EOSINOPHIL [3] of the same compound?
The EOSINOPHIL was 0%.

What about the “ERYTHROCYTE COUNT” value [3] of the same compound?
Its value is 5.31 x10E6/uL.

What about the HEMATOCRIT [3] of the same compound?
The HEMATOCRIT was 33.8%.

What about the HEMOGLOBIN [3] of the same compound?
Its HEMOGLOBIN is 13.6 G/DL.

What about the “LEUKOCYTE COUNT” value [3] of the same compound?
The value was 12.97 x10E3/uL.

What about the LYMPHOCYTE [3] of the same compound?
The LYMPHOCYTE was 88%.

And the “MEAN CORPUSCULAR HEMOGLOBIN” value [3]?
Its value is 25.63 pg.

And the “MEAN CORPUSCULAR HEMOGLOBIN CONCENTRATION” value [3]?
The value was 40.27 G/DL.

And the “MEAN CORPUSCULAR VOLUME” value [3]?
Its value is 63.67 fL.

And the MONOCYTE [3]?
The MONOCYTE was 0.67%.

What about the NEUTROPHIL [3] of the same compound?
The NEUTROPHIL was 11.33%.

And the “NUCLEATED RED BLOOD CELLS” value [3]?
Its value is 0 /100WBC.

And the “PLATELET COUNT” value [3]?
Its value is 1396 x10E3/uL.

And the “ALANINE AMINOTRANSFERASE” value [3]?
The value was 55 u/L.

What about the ALBUMIN [3] of the same compound?
Its ALBUMIN is 3.97 G/DL.

And the “ALKALINE PHOSPHATASE” value [3]?
Its value is 429.67 u/L.

And the “ASPARTATE AMINOTRANSFERASE” value [3]?
Its value is 77.33 u/L.

What about the “BLOOD UREA NITROGEN” value [3] of the same compound?
The value was 15.67 mg/dL.

What about the “CARBON DIOXIDE” value [3] of the same compound?
The value was 31.67 mmol/L.

What about the CHLORIDE [3] of the same compound?
The CHLORIDE was 101.67 MEQ/L.

And the CHOLESTEROL [3]?
The CHOLESTEROL was 73 mg/dL.

What about the “CREATINE PHOSPHOKINASE” value [3] of the same compound?
Its value is 247 u/L.

What about the CREATININE [3] of the same compound?
The CREATININE was 0.17 mg/dL.

What about the GLUCOSE [3] of the same compound?
Its GLUCOSE is 147.33 mg/dL.

And the “LACTATE DEHYDROGENASE” value [3]?
Its value is 229.67 u/L.

And the LIPASE [3]?
Its LIPASE is 9 u/L.

And the PHOSPHORUS [3]?
Its PHOSPHORUS is 13.73 mg/dL.

And the POTASSIUM [3]?
Its POTASSIUM is 6.88 MEQ/L.

And the SODIUM [3]?
The SODIUM was 145.7 MEQ/L.

And the “TOTAL BILIRUBIN” value [3]?
The value was 0.2 mg/dL.

What about the “TOTAL PROTEIN” value [3] of the same compound?
The value was 5.73 G/DL.

What about the “URIC ACID” value [3] of the same compound?
Its value is 1.4 mg/dL.
